± gives the expanded uncertainty stated by the source.
Assay: xn = mol fraction of the nth substance listed
Details: 101 kPa, Liquid; for viscosity: Concentric cylinders viscometry; for speed of sound: Pulse-echo method; for mass density: Vibrating tube method

CCCCCCCO [heptan-1-ol] + C1COCCO1
Details | mass density, 298.15 K [kg/m3] | mass density, 303.15 K [kg/m3] | mass density, 308.15 K [kg/m3] | speed of sound, 298.15 K [m/s] | speed of sound, 303.15 K [m/s] | speed of sound, 308.15 K [m/s] | viscosity, 298.15 K [mPa·s] | viscosity, 303.15 K [mPa·s] | viscosity, 308.15 K [mPa·s]
x1 = 0.0505 | 1008.57 ± 0.28 | 1003.12 ± 0.27 | 997.647 ± 0.27 | 1339.3 ± 1.2 | 1317.9 ± 1.2 | 1296.7 ± 1.2 | 1.217 ± 0.042 | 1.12 ± 0.039 | 1.034 ± 0.036
x1 = 0.1 | 991.286 ± 0.27 | 985.996 ± 0.26 | 980.695 ± 0.26 | 1333.2 ± 1.2 | 1312.3 ± 1.2 | 1291.6 ± 1.2 | 1.247 ± 0.043 | 1.145 ± 0.04 | 1.055 ± 0.037
x1 = 0.1501 | 975.785 ± 0.26 | 970.647 ± 0.26 | 965.496 ± 0.26 | 1328.6 ± 1.2 | 1308.1 ± 1.2 | 1287.8 ± 1.2 | 1.296 ± 0.045 | 1.188 ± 0.041 | 1.093 ± 0.038
x1 = 0.2 | 961.05 ± 0.26 | 956.055 ± 0.26 | 951.048 ± 0.26 | 1324.7 ± 1.2 | 1304.6 ± 1.2 | 1284.7 ± 1.2 | 1.344 ± 0.047 | 1.229 ± 0.043 | 1.129 ± 0.039
x1 = 0.25 | 947.06 ± 0.25 | 942.208 ± 0.25 | 937.338 ± 0.25 | 1321.5 ± 1.2 | 1301.8 ± 1.2 | 1282.2 ± 1.2 | 1.415 ± 0.049 | 1.291 ± 0.045 | 1.183 ± 0.041
x1 = 0.2997 | 934.312 ± 0.25 | 929.584 ± 0.25 | 924.84 ± 0.25 | 1319 ± 1.2 | 1299.7 ± 1.2 | 1280.4 ± 1.2 | 1.5 ± 0.052 | 1.365 ± 0.047 | 1.247 ± 0.043
x1 = 0.3502 | 922.561 ± 0.25 | 917.951 ± 0.25 | 913.324 ± 0.25 | 1317.4 ± 1.2 | 1298.4 ± 1.2 | 1279.4 ± 1.2 | 1.605 ± 0.056 | 1.455 ± 0.051 | 1.324 ± 0.046
x1 = 0.4001 | 911.608 ± 0.25 | 907.108 ± 0.25 | 902.591 ± 0.25 | 1316 ± 1.2 | 1297.2 ± 1.2 | 1278.5 ± 1.2 | 1.713 ± 0.059 | 1.547 ± 0.054 | 1.403 ± 0.049
x1 = 0.4498 | 901.275 ± 0.24 | 896.876 ± 0.24 | 892.463 ± 0.24 | 1315.2 ± 1.2 | 1296.6 ± 1.2 | 1278.2 ± 1.2 | 1.834 ± 0.064 | 1.653 ± 0.057 | 1.497 ± 0.052
x1 = 0.4998 | 891.612 ± 0.24 | 887.314 ± 0.24 | 882.999 ± 0.24 | 1314.9 ± 1.2 | 1296.6 ± 1.2 | 1278.4 ± 1.2 | 2 ± 0.069 | 1.794 ± 0.062 | 1.617 ± 0.056
x1 = 0.55 | 882.643 ± 0.24 | 878.474 ± 0.24 | 874.248 ± 0.24 | 1314.8 ± 1.2 | 1296.7 ± 1.2 | 1278.6 ± 1.2 | 2.169 ± 0.075 | 1.937 ± 0.067 | 1.739 ± 0.06
x1 = 0.6004 | 874.251 ± 0.24 | 870.13 ± 0.24 | 865.991 ± 0.24 | 1315.2 ± 1.2 | 1297.3 ± 1.2 | 1279.4 ± 1.2 | 2.365 ± 0.082 | 2.104 ± 0.073 | 1.881 ± 0.065
x1 = 0.6501 | 866.177 ± 0.24 | 862.139 ± 0.24 | 858.083 ± 0.24 | 1316 ± 1.2 | 1298.3 ± 1.2 | 1280.5 ± 1.2 | 2.593 ± 0.09 | 2.296 ± 0.08 | 2.044 ± 0.071
x1 = 0.7002 | 858.585 ± 0.24 | 854.631 ± 0.24 | 850.647 ± 0.24 | 1316.9 ± 1.2 | 1299.3 ± 1.2 | 1281.7 ± 1.2 | 2.861 ± 0.099 | 2.521 ± 0.087 | 2.234 ± 0.077
x1 = 0.7493 | 851.217 ± 0.24 | 847.338 ± 0.24 | 843.436 ± 0.24 | 1318.2 ± 1.2 | 1300.7 ± 1.2 | 1283.3 ± 1.2 | 3.154 ± 0.11 | 2.766 ± 0.096 | 2.44 ± 0.085
x1 = 0.7999 | 844.345 ± 0.24 | 840.45 ± 0.24 | 836.632 ± 0.24 | 1318.9 ± 1.2 | 1301.7 ± 1.2 | 1284.4 ± 1.2 | 3.524 ± 0.12 | 3.073 ± 0.11 | 2.696 ± 0.093
x1 = 0.85 | 837.74 ± 0.24 | 834.009 ± 0.24 | 830.254 ± 0.24 | 1321.5 ± 1.2 | 1304.3 ± 1.2 | 1287.2 ± 1.2 | 3.943 ± 0.14 | 3.419 ± 0.12 | 2.985 ± 0.1
x1 = 0.8998 | 831.478 ± 0.24 | 827.706 ± 0.24 | 824.01 ± 0.24 | 1323.2 ± 1.2 | 1306.1 ± 1.2 | 1289 ± 1.2 | 4.464 ± 0.15 | 3.847 ± 0.13 | 3.338 ± 0.12
x1 = 0.9498 | 825.31 ± 0.24 | 821.704 ± 0.24 | 818.076 ± 0.24 | 1325.4 ± 1.2 | 1308.3 ± 1.2 | 1291.4 ± 1.2 | 5.075 ± 0.17 | 4.346 ± 0.15 | 3.747 ± 0.13
x1 = 1 | 819.73 ± 0.23 | 816.183 ± 0.23 | 812.61 ± 0.23 | 1328.3 ± 1.2 | 1311.3 ± 1.2 | 1294.5 ± 1.2 | 5.869 ± 0.2 | 4.989 ± 0.17 | 4.27 ± 0.15

— the NIST ThermoML archive (doi:10.1021/je400512u)
